Laboratory results published in patent US20160237499A1, “Genetic Markers for Antipsychotic Induced Weight Gain and Methods for Use Thereof” (CENTRE FOR ADDICTION AND MENTAL HEALTH, priority 2013, published 2016).

Columns and labels:
[1] = patients treated with second-generation antipsychotics; cited from earlier work
[2] = Percentage weight change in antipsychotic-treated schizophrenia patients; assay type: in vivo, human; details: Sample B (N = 56), SCZ patients of European ancestry receiving clozapine; study duration 6.00 ± 0.00 weeks; mean ± SD
Procedure: In total, 160 participants with psychotic symptoms were included in this study. Diagnosis for schizophrenia (SCZ) was assessed by the Structured Diagnostic Interviews for DSM-IIIR and/or DSM-IV diagnoses (SCID-I,^31,32), except for sample A where diagnoses were based on an interview assessing both DSM and ICD diagnoses. The inclusion criteria for adult probands were DSM-IIIR/IV diagnosis of SCZ or schizoaffective disorder, with psychotic symptoms. A written informed consent was obtained after the complete study description was given to each participant, and the study has been approved by the Research Ethics Board.
Sample A (N=93) was collected at the Charité University Medicine, Berlin, Germany. […] Clozapine serum levels were monitored during the course of the treatment to ascertain compliance. Clinical response was assessed after 6 weeks using the Brief Psychiatric Rating Scale (BPRS)^35. […]
Statistical analyses of demographic variables, which included sex, age at recruitment, and duration of treatment, were performed across samples using Fisher's Exact tests, analysis of variance, or Kruskal-Wallis tests (Table 1). […] We also analyzed the ‘percent weight change’ variable in a meta-analytic approach to take into account heterogeneity across the three patient sample groups using STATA version 8 (e.g.,^48). […] Linkage disequilibrium and r^2 between marker pairs as determined by Haploview 4.1^49. […]

[3] = administered into the parabrachial nucleus in the brainstem; cited from earlier work

SMILES: Cc1cc2c(s1)Nc1ccccc1N=C2N1CCN(C)CC1 [olanzapine]
- treated patients experiencing significant weight gain [1]: about 30%

SMILES: CN1CCN(C2=Nc3cc(Cl)ccc3Nc3ccccc32)CC1 [clozapine]
- Percentage weight change [2]: 3.88 ± 5.770

SMILES: Cn1ncnc1COc1nn2c(-c3cc(F)ccc3F)nnc2cc1C(C)(C)C [L-838417]
- food intake [3]: increased food intake

SMILES: Cc1ncc2n1-c1ccc(Cl)cc1C(c1ccccc1F)=NC2 [midazolam]
- food intake [3]: increased food intake
